Test results from ChEMBL document CHEMBL1649260, “Case of fatal Blastoschizomyces capitatus infection occurring in a patient receiving empiric micafungin therapy” (2009).
≈ marks a conversion by molar mass, not a printed value. Numbered stars: 1 amine (or outer) side, 2 acyl side, 3 side chain; on linkers, the order of the positions; unused ones are H or OH. Bridge positions count the residues as written; N and C are the ends. Square brackets hold non-standard residues; d marks the D form. Peptide text beside a SMILES is read from it. * marks the point of attachment. hTyr(3S-OH,4S-OH,3'-OSO3H) = N[C@H](C(=O)O)[C@H](O)[C@@H](O)c1ccc(O)c(OS(=O)(=O)O)c1; pTerphenylCO(4''-OnC5H11) = CCCCCOc1ccc(-c2ccc(-c3ccc(C(=O)*)cc3)cc2)cc1; Orn(4R-OH,5R-OH) = O=C([C@H](C[C@@H](O)[C@@H](O)N[*:3])N[*:1])[*:2]; hTyr(3S-OH,4S-OH) = N[C@H](C(=O)O)[C@H](O)[C@@H](O)c1ccc(O)cc1; Pro(3S-OH,4S-Me) = C[C@H]1CN[C@H](C(=O)O)[C@H]1O; X1 = CCCCCOc1ccc(-c2cc(-c3ccc(C(=O)*)cc3)no2)cc1; Gln(3R-OH) = NC(=O)C[C@@H](O)[C@H](N)C(=O)O; Hyp = O=C(O)[C@@H]1C[C@@H](O)CN1

Each compound was assayed on Magnusiomyces capitatus (assay: Antimicrobial activity against Blastoschizomyces capitatus by microdilution method).
Format: functional
For `C[C@@H]1[C@H](O)[C@@H](C)/C=C/C=C/C=C/C=C/C=C/C=C/C=C/[C@H](O[C@@H]2O[C@H](C)[C@@H](O)[C@H](N)[C@@H]2O)C[C@@H]2O[C@](O)(C[C@@H](O)C[C@@H](O)[C@H](O)CC[C@@H](O)C[C@@H](O)CC(=O)O[C@H]1C)C[C@H](O)[C@H]2C(=O)O` [AMPHOTERICIN B], the MIC was 0.5 mg/L (≈ 0.541 µM).
Work on `CCCCCOc1ccc(-c2ccc(-c3ccc(C(=O)N[C@H]4C[C@@H](O)[C@@H](O)NC(=O)[C@@H]5[C@@H](O)[C@@H](C)CN5C(=O)[C@H]([C@@H](C)O)NC(=O)[C@H]([C@H](O)[C@@H](O)c5ccc(O)cc5)NC(=O)[C@@H]5C[C@@H](O)CN5C(=O)[C@H]([C@@H](C)O)NC4=O)cc3)cc2)cc1` [ANIDULAFUNGIN] ({pTerphenylCO(4''-OnC5H11)}-[Orn(4R-OH,5R-OH)]T[Hyp][hTyr(3S-OH,4S-OH)]T[Pro(3S-OH,4S-Me)]; lactam 1-C) yielded an MIC of 0.5 mg/L (≈ 0.438 µM).
Work on `CC[C@H](C)C[C@H](C)CCCCCCCCC(=O)N[C@H]1C[C@@H](O)[C@@H](NCCN)NC(=O)[C@@H]2[C@@H](O)CCN2C(=O)[C@H]([C@H](O)CCN)NC(=O)[C@H]([C@H](O)[C@@H](O)c2ccc(O)cc2)NC(=O)[C@@H]2C[C@@H](O)CN2C(=O)[C@H]([C@@H](C)O)NC1=O` [CASPOFUNGIN] yielded an MIC of 8 mg/L (≈ 7.32 µM).
In the case of `OC(Cn1cncn1)(Cn1cncn1)c1ccc(F)cc1F` [FLUCONAZOLE], the MIC was 4 mg/L (≈ 13.1 µM).
`Nc1nc(=O)[nH]cc1F` [FLUCYTOSINE] gave an MIC of no more than 0.06 mg/L.
`CCC(C)n1ncn(-c2ccc(N3CCN(c4ccc(OCC5COC(Cn6cncn6)(c6ccc(Cl)cc6Cl)O5)cc4)CC3)cc2)c1=O` (centres undefined) [ITRACONAZOLE] showed an MIC of 0.06 mg/L (≈ 0.085 µM).
Compound `CCCCCOc1ccc(-c2cc(-c3ccc(C(=O)N[C@H]4C[C@@H](O)[C@@H](O)NC(=O)[C@@H]5[C@@H](O)[C@@H](C)CN5C(=O)[C@H]([C@H](O)CC(N)=O)NC(=O)[C@H]([C@H](O)[C@@H](O)c5ccc(O)c(OS(=O)(=O)O)c5)NC(=O)[C@@H]5C[C@@H](O)CN5C(=O)[C@H]([C@@H](C)O)NC4=O)cc3)no2)cc1` [MICAFUNGIN] (X1-[Orn(4R-OH,5R-OH)]T[Hyp][hTyr(3S-OH,4S-OH,3'-OSO3H)][Gln(3R-OH)][Pro(3S-OH,4S-Me)]; lactam 1-C) has an MIC of 0.5 mg/L (≈ 0.394 µM).
In the case of `CC[C@@H]([C@H](C)O)n1ncn(-c2ccc(N3CCN(c4ccc(OC[C@@H]5CO[C@@](Cn6cncn6)(c6ccc(F)cc6F)C5)cc4)CC3)cc2)c1=O` [POSACONAZOLE], the MIC was 0.12 mg/L (≈ 0.171 µM).
In the case of `C[C@@H](c1ncncc1F)[C@](O)(Cn1cncn1)c1ccc(F)cc1F` [VORICONAZOLE], the MIC was 0.06 mg/L (≈ 0.172 µM).
